Activity calls are given as the source filed them.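 The calls were made as follows: active = in confirmatory dose-response testing, peak deubiquitinase inhibition of 30% or more; inactive = the rest.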
The compounds below were run against Ubiquitin carboxyl-terminal hydrolase 28 (Homo sapiens) (UniProt Q96RU2) (assay: Concentration-response biochemical assay confirming initial hits as inhibitors of ubiquitin-specific protease 28 (AID 1645866)). Settings: purified USP28, ubiquitin-rhodamine fluorescence, 30 min.
Ubiquitin carboxyl-terminal hydrolase 28 (Homo sapiens), sequence (Q96RU2 whole entry, looked up): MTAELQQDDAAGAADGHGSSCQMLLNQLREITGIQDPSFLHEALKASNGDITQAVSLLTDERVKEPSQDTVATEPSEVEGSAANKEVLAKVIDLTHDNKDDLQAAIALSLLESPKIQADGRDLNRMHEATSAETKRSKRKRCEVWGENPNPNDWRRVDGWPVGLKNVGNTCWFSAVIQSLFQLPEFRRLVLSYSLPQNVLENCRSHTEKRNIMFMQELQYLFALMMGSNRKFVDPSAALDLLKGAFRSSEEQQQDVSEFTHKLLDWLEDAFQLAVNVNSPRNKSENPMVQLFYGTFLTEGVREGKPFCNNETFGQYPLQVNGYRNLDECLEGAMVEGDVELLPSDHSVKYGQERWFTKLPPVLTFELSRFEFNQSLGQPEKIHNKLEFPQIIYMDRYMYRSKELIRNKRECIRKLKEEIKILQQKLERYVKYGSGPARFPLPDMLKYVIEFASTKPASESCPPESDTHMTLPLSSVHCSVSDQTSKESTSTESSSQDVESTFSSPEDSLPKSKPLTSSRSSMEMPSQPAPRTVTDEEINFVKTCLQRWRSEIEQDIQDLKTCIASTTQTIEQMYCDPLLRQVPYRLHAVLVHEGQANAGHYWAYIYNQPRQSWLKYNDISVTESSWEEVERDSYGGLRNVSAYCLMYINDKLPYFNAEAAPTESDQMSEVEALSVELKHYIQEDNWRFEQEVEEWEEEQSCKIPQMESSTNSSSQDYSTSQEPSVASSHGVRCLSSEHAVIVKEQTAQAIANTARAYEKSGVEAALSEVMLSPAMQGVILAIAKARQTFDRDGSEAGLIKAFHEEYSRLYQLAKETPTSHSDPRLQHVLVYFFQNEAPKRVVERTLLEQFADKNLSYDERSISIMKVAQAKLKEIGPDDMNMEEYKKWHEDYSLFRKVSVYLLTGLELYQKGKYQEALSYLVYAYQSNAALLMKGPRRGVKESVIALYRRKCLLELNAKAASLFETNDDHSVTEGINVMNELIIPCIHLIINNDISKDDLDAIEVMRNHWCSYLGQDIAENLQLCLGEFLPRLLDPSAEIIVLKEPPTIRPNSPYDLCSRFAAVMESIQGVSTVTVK

Structure (SMILES) | IC50
Cc1cc(N2CCN(c3ncccn3)CC2)nc2ccc(NC(=O)/C=C/c3ccccc3Cl)cc12 | 7.79 µM
COc1ccc(NC(=O)Cn2cc(C(=O)c3ccc(C)cc3)c(=O)c3ccccc32)cc1 | 2.67 µM
CC(C)Cc1nc2sc3c(NCCN4CCOCC4)ncnc3c2c2c1CCC2 | 0.828 µM
CCC1=C(c2ccc(C)cc2)S(=O)(=O)NC1=NCC(=O)NCc1ccccc1F | 33.2 µM
COc1ccc(O)c(C(=O)OCc2cc(=O)oc3ccc4ccccc4c23)c1 | > 50 µM (inactive)
Cc1ccccc1NC(=O)c1nc(-c2cn(Cc3ccc(F)cc3)nn2)no1 | 5.88 µM
COc1c(C)c(C(O)C(C)O)c2[nH]c3ccc(CC=C(C)C)cc3c2c1O (stereo unspecified) | 17.4 µM
O=C(Cn1c(=O)nc(-c2ccccc2)c2ccccc21)NCc1ccc2c(c1)OCO2 | 27.9 µM
CCC(C)NC(=O)Cn1c(=O)n(-c2ccccc2)c(=O)c2ccc(C(=O)NCc3ccco3)cc21 (stereo unspecified) | 37.9 µM
Nc1ccccc1SC(CC(=O)c1ccc(Cl)cc1)c1ccsc1 (stereo unspecified) | > 50 µM (inactive)
O=C(NCc1cccc(NC(=O)C2CC2)c1)Nc1cccc2ccccc12 | 20.5 µM
COc1ccccc1NS(=O)(=O)c1cccc(NC(=O)CCc2nc3ccccc3s2)c1 | 13.3 µM
CC(C)NC(=O)CN1C(=O)CC(C)Sc2ccc(S(=O)(=O)N3CCCCC3)cc21 (stereo unspecified) | 41.6 µM
O=C(Nc1nnc2n1CCCS2)c1cccc(Cl)c1 | 1.19 µM
Cc1ccc(NC(=O)CNC(=O)c2cc3ccccc3o2)cc1 | 21.2 µM
O=c1ncn(Cc2ccc3c(c2)OCO3)cc1-c1ncc(C(F)(F)F)cc1Cl | > 50 µM (inactive)
O=C1COc2ccccc2N1Cc1noc(-c2ccccc2)n1 | 4.6 µM
COc1ccc(-c2nc(C)c(C(=O)NCc3ccc(S(N)(=O)=O)cc3)s2)cc1 | > 50 µM (inactive)
COc1ccc(/C=C/C(=O)Nc2ccc3c(c2)OCCO3)cc1Br | 1.34 µM
Cc1ccc(OCC(=O)Nc2cccc(-c3nc4ncccc4o3)c2)c(C)c1 | 38.5 µM
CCn1c(=N)n(CCOc2ccc(F)cc2)c2ccccc21 | 0.588 µM
Cn1c(CCN2CCCC2)nc2cc(NC(=O)c3ccccc3)ccc21 | > 50 µM (inactive)
O=C(NC1CCN(c2nc(-c3cccnc3)nc3ccccc23)CC1)c1cccnc1 | 15.1 µM
CCOC(=O)c1cccc(NC(=O)Nc2cccn3nc(C)nc23)c1 | 0.766 µM
COc1cc2c(c3oc4cccc(O)c4c(=O)c13)C1C=COC1O2 (stereo unspecified) | 36.7 µM
COc1ccc(Cn2cnc3c([nH]c4ccc(Br)cc43)c2=O)cc1 | 1.72 µM

Structure (SMILES) | IC50
Cc1ccc(N=Cc2sc(O)c3ccccc23)c(C)c1 | > 50 µM (inactive)
CCOc1ccc(NC(=O)Cn2cnc(S(=O)(=O)N3CCc4ccccc43)c2)cc1 | 27.6 µM
O=C(CN1C=NC2=NS(=O)(=O)c3ccccc3N21)Nc1cc(F)ccc1F | 28 µM
COc1cc2c(cc1NC(=O)c1ccc(-n3cnnn3)cc1)oc1ccccc12 | 1.33 µM
O=C(c1ccc(COc2cccc3ccccc23)o1)N1CCC(Cc2ccccc2)CC1 | > 50 µM (inactive)
COc1cc(NC(=O)c2cc(-c3ccncc3)n(-c3ccc(F)cc3)n2)cc(OC)c1 | 12 µM
CCCC(=O)N1CCC2(CC1)Nc1ccccc1NC2=O | > 50 µM (inactive)
Cc1ccc(C(=O)Nc2ccc3nccnc3c2)cc1 | 9.87 µM
CCN(CC)C(=O)CN1CCCC(c2ncncc2-c2cc(C)no2)C1 (stereo unspecified) | > 50 µM (inactive)
CC1CCc2sc(NC(=O)c3ccccc3Oc3ccccc3)c(C(N)=O)c2C1 (stereo unspecified) | 15.2 µM
Cc1cccc(NC(=O)Cn2c(N3CCOCC3)nc3cc(C)n(C)c3c2=O)c1 | 16.3 µM
C[C@@H](C(=O)NCc1ccc(F)cc1)N1C(=O)N2CCc3c([nH]c4ccccc34)[C@@]2(C)C1=O | 14.9 µM
COc1ccc(C(=O)Nc2ccc(S(=O)(=O)N3CCCCC3)cc2)cc1 | 17.4 µM
COc1cccc(C(=O)Oc2ccc3c(=O)c(-c4ccc(OC)c(OC)c4)coc3c2)c1 | 0.14 µM
CC(C)OC(=O)c1cc2c(ccn2C)n1CC(=O)N1CCN(C(=O)c2ccco2)CC1 | > 50 µM (inactive)
Cc1cccc(C(=O)N2CCN3Cc4ccccc4N(C)CC3C2)c1 (stereo unspecified) | > 50 µM (inactive)
N#Cc1ccc(COC(=O)c2ccc3ccccc3n2)cc1 | 3.62 µM
O=C(Nc1cccc(OC(=O)c2ccc(Cl)cc2)c1)c1ccc(Cl)cc1 | 41.2 µM
COc1ccccc1CNC(=O)Nc1cccc2ccccc12 | 42.4 µM
CCOc1ccc(-n2c(C)cc(/C=C(\C#N)c3nc4ccccc4[nH]3)c2C)cc1 | > 50 µM (inactive)
Cc1ccc(C(=O)CCC(=O)OCC(=O)c2ccc3[nH]c(=O)[nH]c3c2)cc1 | 24.1 µM
CC(=O)c1cccc(NC(=O)c2ccc(CN(c3ccc(C)c(C)c3)S(C)(=O)=O)cc2)c1 | 2.2 µM
Cc1cccc(NC(=O)CSc2nnc(-c3n[nH]c4c3CCC4)n2N)c1C | 17.6 µM
COc1ccc(NC(=O)CC(=O)c2ccc([N+](=O)[O-])cc2)cc1S(=O)(=O)Nc1ccc(Cl)cc1 | 33.3 µM
CN(C(=O)CSc1nnc(-c2cc3ccccc3n2C)o1)c1ccccc1 | > 50 µM (inactive)
